Data from ChEMBL document CHEMBL1821686, “Structure-based optimization of potent 4- and 6-azaindole-3-carboxamides as renin inhibitors” (Bioorg Med Chem Lett, 2011).

Experiments:
Renin [1] = molecular target: T1, Renin (Homo sapiens, UniProt P00797)
T1 sequence (P00797 whole entry): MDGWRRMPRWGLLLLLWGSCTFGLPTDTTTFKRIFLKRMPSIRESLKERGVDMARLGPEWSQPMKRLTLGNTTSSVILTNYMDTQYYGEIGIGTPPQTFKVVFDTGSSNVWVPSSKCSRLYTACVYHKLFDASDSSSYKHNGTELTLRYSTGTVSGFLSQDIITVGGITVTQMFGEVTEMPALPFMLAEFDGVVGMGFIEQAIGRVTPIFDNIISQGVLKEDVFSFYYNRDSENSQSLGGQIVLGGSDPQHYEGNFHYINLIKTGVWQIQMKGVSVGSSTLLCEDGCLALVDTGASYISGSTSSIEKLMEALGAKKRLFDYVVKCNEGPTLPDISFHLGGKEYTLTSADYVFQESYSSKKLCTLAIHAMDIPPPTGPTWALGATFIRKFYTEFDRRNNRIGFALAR

Renin [2] = molecular target: T1, Renin; assay: Inhibition of human recombinant renin using dabcyl-gamma-Abu-Ile-His-Pro-Phe-His-Leu-Val-Ile-His-Thr-EDANS as substrate preincubated for 30 mins after measured after 30 mins by fluorescence assay in presence of C57BL/6 mouse plasma
Renin [3] = molecular target: T1, Renin; assay: Inhibition of human recombinant renin using dabcyl-gamma-Abu-Ile-His-Pro-Phe-His-Leu-Val-Ile-His-Thr-EDANS as substrate preincubated for 30 mins after measured after 30 mins by fluorescence assay in presence of human plasma
[4] = Apparent permeability from apical to basolateral side of human Caco2 cells at 20 uM after 2 hrs; conditions: Caco-2

Row | IC50 (Renin [1]) [nM] | Structure (SMILES) | other results
1 | 692 | Cc1ccc(C)c(Oc2c(C(=O)N3CCNCC3)c3ncccc3n2-c2ccccc2)c1 | –
2 | 513 | O=C(c1c(Oc2ccccc2F)n(-c2ccccc2)c2cccnc12)N1CCNCC1 | –
3 | 310 | O=C(c1c(Oc2cccc(F)c2F)n(-c2ccccc2)c2cccnc12)N1CCNCC1 | –
4 | 202 | O=C(c1c(Oc2cc(F)ccc2F)n(-c2ccccc2)c2cccnc12)N1CCNCC1 | –
5 | 74 | Cc1cccc(F)c1Oc1c(C(=O)N2CCNCC2)c2ncccc2n1-c1ccccc1 | –
6 | 57 | Cc1c(F)cccc1Oc1c(C(=O)N2CCNCC2)c2ncccc2n1-c1ccccc1 | –
7 | 24 | Cc1ccc(F)cc1Oc1c(C(=O)N2CCNCC2)c2ncccc2n1-c1ccccc1 | –
8 | 55 | O=C(c1c(Oc2cc(F)ccc2Cl)n(-c2ccccc2)c2cccnc12)N1CCNCC1 | –
9 | 322 | Cc1cc(F)c(F)cc1Oc1c(C(=O)N2CCNCC2)c2ncccc2n1-c1ccccc1 | –
10 | 107 | Cc1c(F)cc(F)cc1Oc1c(C(=O)N2CCNCC2)c2ncccc2n1-c1ccccc1 | –
11 | 14 | Cc1cccc(C)c1Oc1c(C(=O)N2CCNCC2)c2ncccc2n1-c1ccccc1 | IC50 (Renin [2]): 15 nM; IC50 (Renin [3]): 30 nM; Papp A→B at 2 h, 20 µM [4]: 0.28 ×10⁻⁶ cm/s
12 | 1.3 | Cc1ccc(F)c(C)c1Oc1c(C(=O)N2CCNCC2)c2ncccc2n1-c1ccccc1 | IC50 (Renin [2]): 36 nM; Papp A→B at 2 h, 20 µM [4]: 4.3 ×10⁻⁶ cm/s
13 | 61 | Cc1cccc(C)c1Sc1c(C(=O)N2CCNCC2)c2ncccc2n1-c1ccccc1 | –
14 | 939 | O=C(c1c(Cc2ccccc2)n(-c2ccccc2)c2cccnc12)N1CCNCC1 | –
15 | 1460 | O=C(c1c(Cc2cccc(F)c2F)n(-c2ccccc2)c2cccnc12)N1CCNCC1 | –
16 | 246 | Cc1cc(F)cc(C)c1Cc1c(C(=O)N2CCNCC2)c2ncccc2n1-c1ccccc1 | –
17 | 12 | Cc1c(F)cccc1Cc1c(C(=O)N2CCNCC2)c2ncccc2n1-c1ccccc1 | –
18 | 4 | Cc1cccc(C)c1Oc1c(C(=O)N2CCNCC2)c2ncccc2n1C1CCCCC1 | –
19 | 80 | Cc1cccc(C)c1Oc1c(C(=O)N2CCN[C@@H](C)C2)c2ncccc2n1C1CCCCC1 | –
20 | 60 | Cc1cccc(C)c1Oc1c(C(=O)N2CCN[C@@H](C)C2)c2ncccc2n1-c1ccccc1 | –
21 | 390 | Cc1cccc(C)c1Oc1c(C(=O)N2CCN[C@@H](CO)C2)c2ncccc2n1C1CCCCC1 | –
22 | 143 | Cc1cccc(C)c1Oc1c(C(=O)N2CCN[C@@H](CO)C2)c2ncccc2n1-c1ccccc1 | –
23 | 694 | COC[C@H]1CN(C(=O)c2c(Oc3c(C)cccc3C)n(C3CCCCC3)c3cccnc23)CCN1 | –

Row | IC50 (Renin [1]) [nM] | Structure (SMILES) | other results
24 | 455 | CC[C@H]1CN(C(=O)c2c(Oc3c(C)cccc3C)n(-c3ccccc3)c3cccnc23)CCN1 | –
25 | 1180 | CCC[C@H]1CN(C(=O)c2c(Oc3c(C)cccc3C)n(-c3ccccc3)c3cccnc23)CCN1 | –
26 | 2710 | Cc1cccc(C)c1Oc1c(C(=O)N2CCN[C@@H](C(C)C)C2)c2ncccc2n1-c1ccccc1 | –
27 | 152 | Cc1cccc(C)c1Oc1c(C(=O)N2CCNC[C@@H]2Cc2ccccc2)c2ncccc2n1-c1ccccc1 | –
28 | 6630 | COc1ccc2c(n1)c(C(=O)N1CCNCC1)c(Oc1cc(F)ccc1C)n2-c1ccccc1 | –
29 | > 5000 | Cc1ccc(F)cc1Oc1c(C(=O)N2CCNCC2)c2nc(O)ccc2n1-c1ccccc1 | –
30 | 14 | Cc1cnc2c(C(=O)N3CCNCC3)c(Oc3cc(F)ccc3C)n(-c3ccccc3)c2c1 | –
31 | 3 | Cc1cccc(C)c1Oc1c(C(=O)N2CCNCC2)c2ncc(O)cc2n1-c1ccccc1 | –
32 | 80 | CCOc1cnc2c(C(=O)N3CCNCC3)c(Oc3c(C)cccc3C)n(-c3ccccc3)c2c1 | –
33 | 9 | Cc1cnc2c(C(=O)N3CCNCC3)c(Cc3cccc(F)c3C)n(-c3ccccc3)c2c1 | –
34 | 590 | COc1ccc2c(n1)c(C(=O)N1CCNCC1)c(Cc1cccc(F)c1C)n2-c1ccccc1 | –
35 | 1600 | Cc1c(F)cccc1Cc1c(C(=O)N2CCNCC2)c2nc(O)ccc2n1-c1ccccc1 | –
36 | 494 | Cc1ccccc1Oc1c(C(=O)N2CCNCC2)c2ccncc2n1-c1ccccc1 | –
37 | 27 | Cc1ccc(F)cc1Oc1c(C(=O)N2CCNCC2)c2ccncc2n1-c1ccccc1 | –
38 | 112 | Cc1cccc(C)c1Oc1c(C(=O)N2CCNCC2)c2ccncc2n1-c1ccccc1 | –
39 | 2 | Cc1ccc(F)c(C)c1Oc1c(C(=O)N2CCNCC2)c2ccncc2n1-c1ccccc1 | –
40 | 761 | O=C(c1c(Cc2ccccc2)n(-c2ccccc2)c2cnccc12)N1CCNCC1 | –
41 | 14 | Cc1c(F)cccc1Cc1c(C(=O)N2CCNCC2)c2ccncc2n1-c1ccccc1 | IC50 (Renin [2]): 26 nM; IC50 (Renin [3]): 25 nM; Papp A→B at 2 h, 20 µM [4]: 1.27 ×10⁻⁶ cm/s
42 | 423 | CCc1nccc2c(C(=O)N3CCNCC3)c(Oc3cc(F)ccc3C)n(-c3ccccc3)c12 | –
43 | – | Cc1ccc(F)cc1Oc1c(C(=O)N2CCNCC2)c2ccnc(Cc3ccccc3)c2n1-c1ccccc1 | IC50 (Renin [2]): 192 nM; IC50 (Renin [3]): 226 nM; Papp A→B at 2 h, 20 µM [4]: 3.9 ×10⁻⁶ cm/s
44 | 517 | Cc1cccc(C)c1Oc1c(C(=O)N2CCNCC2)c2ccnc(Cl)c2n1-c1ccccc1 | –
45 | 5 | Cc1c(F)cccc1Cc1nccc2c(C(=O)N3CCNCC3)c(Cc3cccc(F)c3C)n(-c3ccccc3)c12 | –
46 | 285 | CCCCC1CN(C(=O)c2c(Oc3c(C)cccc3C)n(-c3ccccc3)c3cccnc23)CCN1 (racemic) | –
